# What was measured:
# dopamine in the striatum = assay: Microdialysis in Sprague-Dawley rats; assay type: in vivo
# [1] = cited from earlier work
# [2] = system: striatum (extracellular L-DOPA, DA and metabolites); assay: Microdialysis in Wistar Rats (striatal dialysate levels after COMTi pretreatment); assay type: in vivo; conditions: COMTi 30 mg/kg p.o. 2 hours before SD-1077/Carbidopa 50/25 mg/kg p.o.; FIG. 4
# [3] = system: advanced PD patients with motor fluctuations; assay: Clinical trial of opicapone add on to deuterated levodopa/carbidopa; assay type: in vivo, human; conditions: add on opicapone 20 mg once daily, 12 weeks; expected
# [4] = cited from earlier work; remark: listed apart in the source
# 6-OHDA lesioned rats = conditions: cited from earlier work; for effectiveness on motor performance compared to L-DOPA: as disclosed in WO2014/122184A1
# striatal dopamine = conditions: cited from earlier work; for increase and prolongation of the output of striatal dopamine: WO2004/056724 and WO2007/093450
# Parkinson models = conditions: cited from earlier work
# [5] = plus carbidopa, compared to conventional levodopa plus carbidopa
# [6] = opicapone before levodopa (sequential dosing) compared to concomitant administration, US2014/0045900A1
compound,measurement,setting,value
[2H]C([2H])(c1ccc(O)c(O)c1)[C@]([2H])(N)C(=O)O [Deulevodopa],central bioavailability,dopamine in the striatum; [5],increased
same,half life of dopamine,dopamine in the striatum; [5],about doubled
[2H]C([2H])(c1ccc(O)c(O)c1)[C@]([2H])(N)C(=O)O [d3-L-DOPA],bioavailability of d3-dopamine in the striatum,"dopamine in the striatum; 50 mg/kg ip, rats, compared to conventional L-DOPA (50 mg/kg ip), FIG. 1",significantly increased
N[C@@H](Cc1ccc(O)c(O)c1)C(=O)O [levodopa],dopamine in the extracellular space in the striatal brain tissue,dopamine in the striatum; plus carbidopa,increase
same,half life,[1]; in vivo,about 1.5 hours
same,share of an oral dose that reaches the brain,[1]; oral,1%
"Cc1c(Cl)c(C)[n+]([O-])c(Cl)c1-c1noc(-c2cc(O)c(O)c([N+](=O)[O-])c2)n1 [opicapone, 2,5-dichloro-3-[5-(3,4-dihydroxy-5-nitrophenyl]-1,2,4-oxadiazol-3-yl)-4,6-dimethylpyridine 1-oxide]",extracellular striatal levels of deuterated L-DOPA (SD-1077),[2],more effective than entacapone
same,increase of ON time without dyskinesia compared to placebo,[3],about 40 min
same,levodopa exposure,[4]; Parkinson's patients,increase levodopa exposure in a dose-dependent manner
same,motor outcomes,[4]; Parkinson's patients,improve
same,food effect on rate and extent of absorption,[4]; US2014/0045900A1,marked food effect
same,levodopa Cmax,[4]; [6],decrease
same,levodopa systemic exposure,[4]; [6],increase
Cc1ccc(C(=O)c2cc(O)c(O)c([N+](=O)[O-])c2)cc1 [tolcapone],hepatotoxicity,[4]; after market launch,several cases of hepatotoxicity
same,crossing of the BBB,[4]; in vivo,crosses the BBB
"[2H]C([2H])(c1ccc(O)c(O)c1)[C@]([2H])(N)C(=O)O [α,β,β-D3-L-DOPA, L-2-Amino-2,3,3-trideutero-3-(3,4-dihydroxyphenyl) propionic acid]",effectiveness on motor performance compared to L-DOPA,6-OHDA lesioned rats,as effective as L-DOPA at lower doses
same,increase and prolongation of the output of striatal dopamine,striatal dopamine,significantly more than L-DOPA
same,striatal dopamine levels compared to L-DOPA,striatal dopamine; in vivo,higher longer-lasting
same,equi-effective dose compared to L-DOPA,Parkinson models; in vivo,about 60%
same,motor activity compared to L-DOPA,"Parkinson models; several Parkinson models, Malmlof et al.",improved
"[2H][C@@H](c1ccc(O)c(O)c1)[C@]([2H])(N)C(=O)O [α,β-D2-L-DOPA, S/S-2-amino-2,3-dideutero-3-(3,4-dihydroxyphenyl) propionic acid]",effectiveness on motor performance compared to L-DOPA,6-OHDA lesioned rats,as effective as L-DOPA at lower doses
same,increase and prolongation of the output of striatal dopamine,striatal dopamine,significantly more than L-DOPA
same,striatal dopamine concentrations,"striatal dopamine; compared with L-DOPA and α,β,β-D3-L-DOPA",highest
"L-2-amino-2,3,3*-trideutero-3-(3,4-dihydroxyphenyl) propionic acid [Composition 1]",effectiveness on motor performance compared to L-DOPA,6-OHDA lesioned rats,as effective as L-DOPA at lower doses
same,observed dyskinesia side effects relative to levodopa,"6-OHDA lesioned rats; rat model of Parkinson's disease, at equivalent motor effect, WO2014/122184A1",50%
same,"dose yielding equivalent motor effect to levodopa, as % of the levodopa dose","6-OHDA lesioned rats; rat model of Parkinson's disease, WO2014/122184A1",35%
